The target in the test is T1, p300 (Homo sapiens, UniProt Q09472).
T1 construct: host or cells: A549 P300 HiBit cells
Put plainly: P300 degradation, HiBit technology in A549 P300 HiBit cells (2 h). Format: cell-based. The conditions noted are these: 2 hrs post treatment; for Dmax: A549, A549 P300 HiBit cells; for DC50: A549 P300 HiBit cells. In short, it runs like this:
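Degradation potency and Dmax came from HiBiT luminescence in tagged A549 cells treated with serially diluted compound (DMSO stocks at 10 mM) after overnight equilibration in F-12K with 10% heat-inactivated FBS.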

Molecules are shown by their SMILES.

T1 sequence (Q09472 whole entry): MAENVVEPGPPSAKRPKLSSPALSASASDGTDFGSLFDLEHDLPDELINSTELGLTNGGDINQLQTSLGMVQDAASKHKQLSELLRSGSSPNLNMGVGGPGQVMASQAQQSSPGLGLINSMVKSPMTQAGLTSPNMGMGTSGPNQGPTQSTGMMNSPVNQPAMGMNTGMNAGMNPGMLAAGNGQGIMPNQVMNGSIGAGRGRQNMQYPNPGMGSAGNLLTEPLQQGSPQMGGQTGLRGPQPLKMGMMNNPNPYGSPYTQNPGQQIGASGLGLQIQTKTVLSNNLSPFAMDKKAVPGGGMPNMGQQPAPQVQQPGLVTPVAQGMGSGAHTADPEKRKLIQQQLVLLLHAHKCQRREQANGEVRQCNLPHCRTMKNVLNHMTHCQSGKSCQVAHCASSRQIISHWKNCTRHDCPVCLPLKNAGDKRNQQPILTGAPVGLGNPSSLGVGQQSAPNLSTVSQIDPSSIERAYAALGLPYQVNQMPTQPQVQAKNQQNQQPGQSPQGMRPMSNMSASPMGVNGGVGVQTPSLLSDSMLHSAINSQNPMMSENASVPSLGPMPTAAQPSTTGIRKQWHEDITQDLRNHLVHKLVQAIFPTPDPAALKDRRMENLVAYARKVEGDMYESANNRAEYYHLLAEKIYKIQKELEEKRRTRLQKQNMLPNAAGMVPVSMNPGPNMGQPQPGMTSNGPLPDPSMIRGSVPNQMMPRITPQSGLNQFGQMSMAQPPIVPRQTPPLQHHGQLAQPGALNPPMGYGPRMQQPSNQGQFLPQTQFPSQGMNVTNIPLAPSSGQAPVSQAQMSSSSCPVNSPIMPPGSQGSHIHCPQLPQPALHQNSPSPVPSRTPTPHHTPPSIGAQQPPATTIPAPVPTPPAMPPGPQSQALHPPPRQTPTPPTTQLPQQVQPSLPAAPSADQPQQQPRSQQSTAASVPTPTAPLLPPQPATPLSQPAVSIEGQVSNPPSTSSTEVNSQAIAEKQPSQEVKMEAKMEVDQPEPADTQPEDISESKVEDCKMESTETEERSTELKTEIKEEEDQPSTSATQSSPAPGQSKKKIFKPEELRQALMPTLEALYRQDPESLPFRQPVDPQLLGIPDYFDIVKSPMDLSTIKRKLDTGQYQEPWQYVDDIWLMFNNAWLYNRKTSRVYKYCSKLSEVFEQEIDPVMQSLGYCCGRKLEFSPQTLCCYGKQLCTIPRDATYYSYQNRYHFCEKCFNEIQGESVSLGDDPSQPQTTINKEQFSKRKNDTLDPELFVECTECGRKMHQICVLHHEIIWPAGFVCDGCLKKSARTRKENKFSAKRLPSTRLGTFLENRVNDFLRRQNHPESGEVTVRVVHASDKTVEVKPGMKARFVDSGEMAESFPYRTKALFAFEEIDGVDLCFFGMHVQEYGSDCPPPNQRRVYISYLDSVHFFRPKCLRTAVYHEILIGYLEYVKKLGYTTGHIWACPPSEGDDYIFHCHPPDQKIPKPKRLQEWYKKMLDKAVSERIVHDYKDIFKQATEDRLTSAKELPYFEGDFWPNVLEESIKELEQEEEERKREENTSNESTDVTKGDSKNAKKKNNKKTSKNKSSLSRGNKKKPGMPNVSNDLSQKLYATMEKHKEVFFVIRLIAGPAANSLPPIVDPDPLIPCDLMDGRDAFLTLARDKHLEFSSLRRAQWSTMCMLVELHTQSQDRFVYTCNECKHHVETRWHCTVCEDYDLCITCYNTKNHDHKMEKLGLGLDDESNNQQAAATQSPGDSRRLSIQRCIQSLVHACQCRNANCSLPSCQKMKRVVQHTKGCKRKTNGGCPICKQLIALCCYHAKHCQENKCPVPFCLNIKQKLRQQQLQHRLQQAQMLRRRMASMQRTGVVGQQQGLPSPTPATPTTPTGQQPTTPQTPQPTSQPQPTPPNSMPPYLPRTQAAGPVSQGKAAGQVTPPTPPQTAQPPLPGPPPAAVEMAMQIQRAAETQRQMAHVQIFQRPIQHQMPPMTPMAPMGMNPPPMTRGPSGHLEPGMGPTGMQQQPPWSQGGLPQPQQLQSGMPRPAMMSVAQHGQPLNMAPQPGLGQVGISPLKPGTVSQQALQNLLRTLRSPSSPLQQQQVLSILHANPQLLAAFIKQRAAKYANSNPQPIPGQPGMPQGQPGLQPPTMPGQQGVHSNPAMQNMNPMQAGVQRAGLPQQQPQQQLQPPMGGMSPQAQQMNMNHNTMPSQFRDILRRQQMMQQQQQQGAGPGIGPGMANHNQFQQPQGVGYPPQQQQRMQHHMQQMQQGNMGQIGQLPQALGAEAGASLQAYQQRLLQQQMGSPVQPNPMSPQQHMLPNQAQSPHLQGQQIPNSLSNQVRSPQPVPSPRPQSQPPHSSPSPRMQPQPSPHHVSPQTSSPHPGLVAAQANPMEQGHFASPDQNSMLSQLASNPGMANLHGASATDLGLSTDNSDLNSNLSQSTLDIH

For orientation: Dmax means the largest share of the target that was removed. Read a high Dmax as deep degradation. In general, DC50 refers to the concentration at which degradation of the target reaches its halfway point. Higher therefore signals a less potent degrader. Take `Cc1cc2c(N3CCCc4nc(-c5ccc(C(=O)NCC#Cc6ccc7occ(C8CCC(=O)NC8=O)c7c6)nc5)ncc43)nc(N3CCC3)cc2n(C)c1=O` (stereo not shown) [Example B86, 5-(5-(7-(azetidin-1-yl)-1,3-dimethyl-2-oxo-1,2-dihydro-1,6-naphthyridin-5-yl)-5,6,7,8-tetrahydropyrido[3,2-d]pyrimidin-2-yl)-N-(3-(3-(2,6-dioxopiperidin-3-yl)benzofuran-5-yl)prop-2-yn-1-yl)picolinamide]: the maximal degradation (Dmax) is greater than 80% and the DC50 lay within 1 to 9.9 nM.

Take `CCc1cc(-c2cccc3cc(-c4ccc(C(=O)NCC#Cc5ccc6cnn(C7CCC(=O)NC7=O)c6c5)nc4)ncc23)c2c(n1)N(C)C(=O)N(C)C2` (stereo not shown) [Example B13, N-(3-(1-(2,6-Dioxopiperidin-3-yl)-1H-indazol-6-yl)prop-2-yn-1-yl)-5-(8-(7-ethyl-1,3-dimethyl-2-oxo-1,2,3,4-tetrahydropyrido[2,3-d]pyrimidin-5-yl)isoquinolin-3-yl)picolinamide]: the Dmax was greater than 80% and the 50% degradation concentration (DC50) lay within 1 to 9.9 nM.

For the compound `CC(C)c1cc(N2CCCc3cc(-c4ccc(C(=O)NCC#Cc5ccc6occ(C7CCC(=O)NC7=O)c6c5)nc4)c(F)cc32)cc2c1n(C)c(=O)n2C` (stereo not shown) [Example A117, N-(3-(3-(2,6-dioxo-piperidin-3-yl)benzofuran-5-yl)prop-2-yn-1-yl)-5-(7-fluoro-1-(7-isopropyl-1,3-dimethyl-2-oxo-2,3-dihydro-1H-benzo [d]imidazol-5-yl)-1,2,3,4-tetrahydro-quinolin-6-yl)picolinamide], the Dmax was greater than 80% and the half-maximal degradation concentration (DC50) was 1 to 9.9 nM.

With `CC(C)c1cc(-c2cccc3cc(-c4ccc(C(=O)NCC#Cc5ccc6ncnc(C7CCC(=O)NC7=O)c6c5)nc4)ncc23)cc2c1n(C)c(=O)n2C` (stereo not shown) [Example A214, N-(3-(4-(2,6-dioxo-piperidin-3-yl)quinazolin-6-yl)prop-2-yn-1-yl)-5-(8-(7-isopropyl-1,3-dimethyl-2-oxo-2,3-dihydro-1H-benzo [d]imidazol-5-yl)isoquinolin-3-yl)picolinamide], the Dmax lay in the range of 60 to 79% and the DC50 lay in the range of 10 to 99 nM.

Compound `Cn1c(=O)oc2cc(-c3cccc4cc(-c5ccc(C(=O)NCC#Cc6ccc7occ(C8CCC(=O)NC8=O)c7c6)nc5)ncc34)ccc21` (stereo not shown) [Example A120, N-(3-(3-(2,6-dioxo-piperidin-3-yl)benzofuran-5-yl)prop-2-yn-1-yl)-5-(8-(3-methyl-2-oxo-2,3-dihydrobenzo[d]oxazol-6-yl)isoquinolin-3-yl)picolinamide] yielded a Dmax of less than 20% and a DC50 greater than 1000 nM.

Take `Cc1cc(-c2ccc(N(C)c3cc(C4=CCOCC4)c4c(c3)n(C)c(=O)n4C)cn2)cnc1C(=O)NCC#Cc1cccc(NC2CCC(=O)NC2=O)c1` (stereo not shown) [Example A40, 5-((7-(3,6-dihydro-2H-pyran-4-yl)-1,3-dimethyl-2-oxo-2,3-dihydro-1H-benzo[d]imidazol-5-yl)(methyl)amino)-N-(3-(3-((2,6-dioxopiperidin-3-yl)amino)phenyl)prop-2-yn-1-yl)-5′-methyl-[2,3′-bipyridine]-6′-carboxamide]: the maximal degradation (Dmax) is greater than 80% and the 50% degradation concentration (DC50) lay within 1 to 9.9 nM.

`CCc1cc(S(=O)(=O)c2ccc(-c3cnc(C(=O)NCC#Cc4cccc(NC5CCC(=O)NC5=O)c4)c(C)c3)nc2)c2cc(C)c(=O)n(C)c2c1` (stereo not shown) [Example B10, N-(3-(3-((2,6-Dioxopiperidin-3-yl)amino)phenyl)prop-2-yn-1-yl)-5-((7-ethyl-1,3-dimethyl-2-oxo-1,2-dihydroquinolin-5-yl)sulfonyl)-5′-methyl-[2,3′-bipyridine]-6′-carboxamide]: the Dmax is less than 20% and the 50% degradation concentration (DC50) was greater than 1000 nM.

`COc1nn(C2CCC(=O)NC2=O)c2cc(C#CCNC(=O)c3ccc(-c4cc5cccc(-c6cc(C(C)C)c7c(c6)n(C)c(=O)n7C)c5cn4)cn3)ccc12` (stereo not shown) [Example A4, N-(3-(1-(2,6-Dioxopiperidin-3-yl)-3-methoxy-1H-indazol-6-yl)prop-2-yn-1-yl)-5-(8-(7-isopropyl-1,3-dimethyl-2-oxo-2,3-dihydro-1H-benzo[d]imidazol-5-yl)isoquinolin-3-yl)picolinamide]: the Dmax is greater than 80% and the 50% degradation concentration (DC50) lay within 10 to 99 nM.

Take `Cn1c(=O)n(C)c2c(C3CCS(=O)(=O)CC3)nc(N3CCCc4cc(-c5ccc(C(=O)NCC#Cc6ccc7occ(C8CCC(=O)NC8=O)c7c6)nc5)c(C(F)F)cc43)cc21` (stereo not shown) [Example A140, 5-(7-(difluoromethyl)-1-(4-(1,1-dioxido-tetrahydro-2H-thio-pyran-4-yl)-1,3-dimethyl-2-oxo-2,3-dihydro-1H-imidazo[4,5-c]pyridin-6-yl)-1,2,3,4-tetrahydroquinolin-6-yl)-N-(3-(3-(2,6-dioxopiperidin-3-yl)benzofuran-5-yl)prop-2-yn-1-yl)picolinamide]: the Dmax was 40 to 59% and the DC50 was in the range of 1 to 9.9 nM.

As for `Cc1cc(-c2ncc3c(n2)CCCN3c2ccc3c(c2)n(C)c(=O)n3C)cnc1C(=O)NCC#Cc1cc2c(C3CCC(=O)NC3=O)cccc2o1` (stereo not shown) [Example A231, 5-(5-(1,3-dimethyl-2-oxo-2,3-dihydro-1H-benzo[d]imidazol-5-yl)-5,6,7,8-tetra-hydropyrido[3,2-d]pyrimidin-2-yl)-N-(3-(4-(2,6-dioxo-piperidin-3-yl)benzofuran-2-yl)prop-2-yn-1-yl)-3-methylpicolinamide], the maximal degradation (Dmax) is greater than 80% and the 50% degradation concentration (DC50) was 1 to 9.9 nM.

With `Cn1c(=O)n(C)c2c(C3CCOCC3)nc(-c3cccc4cc(-c5ccc(C(=O)NCC#Cc6ccc7occ(C8CCC(=O)NC8=O)c7c6)nc5)ncc34)cc21` (stereo not shown) [Example A135, 5-(8-(1,3-dimethyl-2-oxo-4-(tetrahydro-2H-pyran-4-yl)-2,3-dihydro-1H-imidazo[4,5-c]pyridin-6-yl)isoquinolin-3-yl)-N-(3-(3-(2,6-dioxopiperidin-3-yl)benzofuran-5-yl)prop-2-yn-1-yl)picolinamide], the Dmax is greater than 80% and the half-maximal degradation concentration (DC50) was 1 to 9.9 nM.

`Cc1cc(N2CCN(C)c3cc(-c4ccc(C(=O)NCC#Cc5cc6c(C7CCC(=O)NC7=O)cccc6o5)nc4)ncc32)cc2c1n(C)c(=O)n2C` (stereo not shown) [Example A239, N-(3-(4-(2,6-dioxo-piperidin-3-yl)benzofuran-2-yl)prop-2-yn-1-yl)-5-(1-methyl-4-(1,3,7-trimethyl-2-oxo-2,3-dihydro-1H-benzo [d]imidazol-5-yl)-1,2,3,4-tetrahydro-pyrido[3,4-b]pyrazin-7-yl)picolinamide] yielded a Dmax greater than 80% and a 50% degradation concentration (DC50) of less than 1 nM.

In the case of `Cc1cc2c(N3CCOc4cc(-c5ccc(C(=O)NCC#Cc6ccc7occ(C8CCC(=O)NC8=O)c7c6)nc5)ncc43)cc(C3CCOCC3)cc2n(C)c1=O` (stereo not shown) [Example B109, 5-(4-(1,3-dimethyl-2-oxo-7-(tetrahydro-2H-pyran-4-yl)-1,2-dihydroquinolin-5-yl)-3,4-dihydro-2H-pyrido[4,3-b][1,4]oxazin-7-yl)-N-(3-(3-(2,6-dioxopiperidin-3-yl)benzofuran-5-yl)prop-2-yn-1-yl)picolinamide], the Dmax is greater than 80% and the 50% degradation concentration (DC50) is less than 1 nM.

As to `Cc1cc2c(N3CCCc4cc(-c5ccc(C(=O)NCC#Cc6ccc7occ(C8CCC(=O)NC8=O)c7c6)nc5)c(F)cc43)cc(C(C)C)cc2n(C)c1=O` (stereo not shown) [Example B134, N-(3-(3-(2,6-dioxopiperidin-3-yl)benzofuran-5-yl)prop-2-yn-1-yl)-5-(7-fluoro-7′-isopropyl-1′,3′-dimethyl-2′-oxo-1′,2′,3,4-tetrahydro-2H-[1,5′-biquinolin]-6-yl)picolinamide], the Dmax was greater than 80% and the DC50 was in the range of 10 to 99 nM.
